Measured values as given in patent US7718613B2, “Armed peptides” (priority 2001, dated 2010).
The star is where a group is joined. Myristoyl = CCCCCCCCCCCCCC(=O)*

Experiments:
[1] = Liposome-peptide integral complex: pH-triggered calcein release and stability; conditions: after Sepharose CL-6B column, FIG. 8A
From the text: A fatty acid incorporated on the N-terminal of peptide anchors the sequence with liposomes to form integral complex which can then be used as single stable reagent that can be triggered to release the contents-of the liposomoes when the pH is ideal (i.e physiological 7.4) or acidic (e.g 6.2). In the first instance we prepared the liposome-peptide complex at a predetermined ratio of lipid-to peptide (30:1) in pH 8 buffer using peptide 10. […] The complex between liposomes and peptide was formed by adding peptide to […] of 10 mM NaP containing 140 mM NaCl, 1 mM EDTA, 5 mM Hepes pH 8 buffer, containing 100 μl of calcein encapsulating liposomes. The mixture was incubated for 20 mins to form the complex prior to use. In order to ascertain that the lysis is occurring due to the formation of complex and not as the action of the peptide per se it was essential to purify the liposome-peptide complex. The peptide to lipid ratio in this complex is 1:30. The complex was applied to a Sepharose CL-6B column. Fractions corresponding to liposomes were collected as clearly visible to the eye. Aliquots of these fractions were then tested for lytic activity at acidic and physiological pH values. The key aim was to establish that the peptide is liposome associated and would thus be eluted with liposome fraction in the void volume. We used 100 μl complex (a column purified fraction) and followed the release of Calcein at two different pH values.
FIG. 8A. […] Upper curve pH 5.8. Lower curve pH 7.4.
2 ml buffer (10 mM Na phosphate, 140 mM NaCl, 1 mM EDTA, 5 mM HEPES)+50 μl purified complex. Lipsomes used were 50 nm extruded. Curves top to bottom are pH 6.2, 6.4, 6.7, 7.0, 7.4
Complex 20 μl liposomes+60 μl pH 8 buffer+20 μl peptide (0.1 mg/ml) prepared and used within 2 minutes. 10 μl was added to each of the cuvettes containing 2 ml buffers. Top curve pH 6.2 (triton was added towards the end indicated by sharp dip in fluorescence to check full lysis), the lower curve is at pH 7.4. Samples measured simultaneously.
5 μL of complex in 2 ml of buffer tested 20 minutes after preparation. Upper curve pH 6.2, Lower curve pH 7.4.
5 μL of complex in 2 ml of buffer tested 5 hrs after preparation. Upper curve pH 6.2 and lower curve pH 7.4.
5 μL of complex in 2 ml of buffer tested 24 hrs after preparation curve pH 6.2, Lower curve pH 7.4.

[2] = Detection of VTB epitope and VTB subunit by pH arming liposomal assay
[3] = Activation of phosphorylated peptide by alkaline phosphatase, calcein liposome lysis
Experimental: Alkaline phosphatase (bovine intestinal mucosa) obtained from Sigma was used for dephosphorylation of peptide at the serine phosphate. A 10 μl of Peptide solution (0.01 mg/ml) was added to 2 ml of 10 mM HEPES buffer at pH 6.8 and 10 units of alkaline phosphatase added. After allowing 10-minute incubation for dephosphorylation calcein liposomes (5 μM lipid) were added and fluorescence intensity recorded using wavelengths of 490 nm for excitation and 520 nm for emission. Control experiment was conducted in the absence of alkaline phosphates. […] Thus the enzyme treatment yielded the dephosphorylated peptide resulting in activation of the peptide under mildly acidic conditions 3 μl of 0.1 mg/ml of peptide 12 (table 1) was incubated for 10 minutes with alkaline phosphatase in 20 μl 10 mM Tris-HCL pH 8 buffer. This was then added (see arrow on FIG. 14B) to 2 ml PBS pH 6.6 buffer containing 3 μl of calcein liposomes (3 mg/ml lipid concentration). Fluorescence was recorded as a function of time with excitation and emission wavelengths of 490 nm and 520 nm respectively. A similar experiment was carried out in the absence of alkaline phosphatase.

[4] = Cloaking of peptide activity with pH and DNA binding, calcein liposome lysis
Experimental: Calcein liposomes containing (5 μM lipid) were added to 2 ml phosphate buffered saline containing the peptide (0.4 μM) and the fluorescence recorded. This was carried out at pH values of 6.6 and 7.4. The fluorescence intensity indicative of leakage after five minutes was expressed as a % of lysis obtained with 10 μl of 10% Triton-X100. the latter taken to represent 100% lysis. The experiment was repeated whereby the peptide was pre-condensed with calf thymus DNA (Sigma) at charge ratio to give minimum lysis at pH 7.4. […] Thus the DNA condensate of the peptide would require both the de-condensation and slightly acidic conditions to cause lysis. Cloaking of peptides with DNA binding and pH has obvious advantages when delivering genes via the endosome route where low pH is encountered. A combination of highly anionic region (towards the N terminal end of peptide 13 table 1 residues LEAALAEALEAL) and highly cationic region (the c terminal end of peptide 13 table 1, residues RRRRQQ,) within the same polypeptide sequence is critical to this fuction.
To assess condensation of DNA to peptide and its effect on cytolytic activity, assays were performed at several different pH values and at different peptide to DNA ratios. […] The peptide or complexes have a property of retaining high basic character on one end which is essential for DNA binding while retaining highly acidic character on the other half of the molecule which is critical for pH switching.

In the case of “Myr-WBALAEALAEALAEHLAKALAEALEALAA-Amide [peptide 10]”, the “Calcein release from purified liposome-peptide complex at pH 5.8” value ([1]; peptide to lipid 1:30, pH 5.8) is reported as “acid triggered release” and the “Calcein release from purified liposome-peptide complex at pH 7.4” value ([1]; peptide to lipid 1:30, pH 7.4) is reported as “little or no release”.
For “Myr-EAALAEALAEALAEGK(ELFTNR)PALISWRRRLQQ-amide [peptide 6]”, the “detection of VTB subunit by release of calcein” value ([2]; VTB subunit competing for anti-epitope antibody, pH 6.8, FIG. 7) was “could also be detected”, the “pH sensitivity of cytolytic activity” value ([2]; analogous to parent Peptide 2) was “pH sensitive” and the “detection of VTB epitope by release of calcein” value ([2]; free epitope (ELFTNR) competing for 6 μg anti-epitope antibody, FIG. 6) was “could be detected”.
In the case of “Myr-WEA ALA EAL AEA S(Phospho)AE HLA RAL AEA LEA LAA-Amide [peptide 12]”, the “dye release in the presence of alkaline phosphatase, pH 6.8” value ([3]; 10 units alkaline phosphatase, 10 mM HEPES pH 6.8, FIG. 14A) is reported as “substantial dye release”, the “dye release, enzyme treated peptide, pH 6.6” value ([3]; alkaline phosphatase pre-incubation pH 8, then PBS pH 6.6, FIG. 14B curve 1) is reported as “release of the dye” and the “dye release, non-treated peptide, pH 6.6” value ([3]; no alkaline phosphatase, PBS pH 6.6, FIG. 14B curve 2) is reported as “no or little rate increase”. For the same substance, the “dye release in the absence of enzyme, pH 6.8” value ([3]; no alkaline phosphatase, pH 6.8, FIG. 14A) was “low release”.
With “Myr-LEAALAEALEALAAGKPALISWIRRRRQQ-Amide (Myristoyl-LEAALAEALEALAAGKPALISWIRRRRQQ-NH2; SMILES CCCCCCCCCCCCCC(=O)N[C@@H](CC(C)C)C(=O)N[C@@H](CCC(=O)O)C(=O)N[C@@H](C)C(=O)N[C@@H](C)C(=O)N[C@@H](CC(C)C)C(=O)N[C@@H](C)C(=O)N[C@@H](CCC(=O)O)C(=O)N[C@@H](C)C(=O)N[C@@H](CC(C)C)C(=O)N[C@@H](CCC(=O)O)C(=O)N[C@@H](C)C(=O)N[C@@H](CC(C)C)C(=O)N[C@@H](C)C(=O)N[C@@H](C)C(=O)NCC(=O)N[C@@H](CCCCN)C(=O)N1CCC[C@H]1C(=O)N[C@@H](C)C(=O)N[C@@H](CC(C)C)C(=O)N[C@H](C(=O)N[C@@H](CO)C(=O)N[C@@H](Cc1c[nH]c2ccccc12)C(=O)N[C@H](C(=O)N[C@@H](CCCNC(=N)N)C(=O)N[C@@H](CCCNC(=N)N)C(=O)N[C@@H](CCCNC(=N)N)C(=O)N[C@@H](CCCNC(=N)N)C(=O)N[C@@H](CCC(N)=O)C(=O)N[C@@H](CCC(N)=O)C(N)=O)[C@@H](C)CC)[C@@H](C)CC) [Peptide 13]” the “lysis of calcein liposomes when no DNA is present” value ([4]; 0.4 μM peptide, pH 6.6 vs 7.4, five minutes, FIG. 15) was “activated by acidic pH”, the “cytolytic activity with DNA at acidic pH” value ([4]; DNA substantially dissociated) was “activity is regained” and the “effect of DNA binding on peptide activity” value ([4]; pre-condensed with calf thymus DNA, FIG. 15) was “substantial inactivation”. The “cytolytic activity bound to DNA at physiological pH” value ([4]; several peptide to DNA ratios) was “inactive”.
